Key:
[1] = Plasma and brain PK (5 mg/kg IV); format: in vivo; conditions: female CD-1 mice; for Tmax / Cmax / AUC(0-t): mouse; for AUC(0-t): read-out: Plasma AUClast
[2] = Plasma and brain PK (IV / IP dosing)
[3] = in vitro; conditions: human, Caco-2
[4] = BBB penetration (method not described); conditions: brain / plasma, iv, 5 mg/kg; read-out: unlabelled value after the PK data (matches brain/plasma AUClast ratio, 5mpk IV)
[5] = Solubility remark; format: physicochemical; conditions: remark in words
[6] = Microsomes stability; format: in vitro ADME
[7] = brain, read-out: Brain Tmax (converted)

Cc1ccc(CC(CNC(=O)CO)n2c(=N)n([C@@H](C)c3ccc(C)cc3)c3ccccc32)cc1 (some centres unmarked) [ww5-189]
Brain AUClast ([1]; brain): 11291.545 ng·min/mL | Brain Cmax ([1]; brain): 15.29 ng/mL | Brain HL_Lambda_z ([1]; brain): 728.6 min | Tmax [1, 7]: 30 min | Cmax ([1]; plasma): 600 ng/mL | AUC(0-t) ([1]; plasma): 691 ng·h/mL | Tmax ([1]; plasma, read-out: Plasma Tmax): 10 min | Plasma Cl_F_obs ([1]; plasma): 2.72 mL/min | Plasma HL_Lambda_z ([1]; plasma): 230.4 min | Plasma Vz_F_obs ([1]; plasma): 904.1 mL

Br.Cc1ccc(C[C@@H](C(=O)N2CC3(COC3)C2)n2c(=N)n(C(C)c3ccc(C)cc3)c3ccccc32)cc1 (stereo partly drawn) [WZ-II-151, (2S)-2-(2-imino-3-(1-(p-tolyl)ethyl)-2,3-dihydro-1H-benzo[d]imidazol-1-yl)-1-(2-oxa-6-azaspiro[3.3]heptan-6-yl)-3-(p-tolyl)propan-1-one]
Cl_F_obs ([2]; Brain PK, 5 mg/Kg (5mpk) IV): 22.9 mL/min | Vz_F_obs ([2]; Brain PK, 5 mg/Kg (5mpk) IV): 8876 mL | Cl_F_obs ([2]; Plasma PK, 5 mg/Kg (5mpk) IV): 2.39 mL/min | Vz_F_obs ([2]; Plasma PK, 5 mg/Kg (5mpk) IV): 453 mL | AUC(0-t) ([2]; brain, iv, 5 mg/kg): 93.1 ng·h/mL | Cmax ([2]; brain, iv, 5 mg/kg): 22.7 ng/mL | Tmax ([2]; brain, iv, 5 mg/kg): 10 min | half-life ([2]; brain, iv, 5 mg/kg): 269 min | AUC(0-t) ([2]; plasma, iv, 5 mg/kg): 908 ng·h/mL | Cmax ([2]; plasma, iv, 5 mg/kg): 869 ng/mL | Tmax ([2]; plasma, iv, 5 mg/kg): 10 min | half-life ([2]; plasma, iv, 5 mg/kg): 131 min

Cc1ccc(CC(CNC(=O)CF)n2c(=N)n(Cc3ccc(C)cc3)c3ccccc32)cc1 (centres unmarked) [ww5-308]
Papp A→B [3]: 3.05 ×10⁻⁶ cm/s | Papp B→A [3]: 8.72 ×10⁻⁶ cm/s

C/N=c1\n(Cc2ccc(C)cc2)c2ccccc2n1C(CO)Cc1ccc(C)cc1 (centres unmarked) [ww4-276]
Papp A→B [3]: 2.19 ×10⁻⁶ cm/s | Papp B→A [3]: 5.47 ×10⁻⁶ cm/s | efflux ratio [3]: 2.5

Br.COCC(Cc1ccc(C)cc1)n1c(=N)n(C(C)c2ccc(C)cc2)c2cccnc21 (single isomer, unassigned) [WZ-II-149]
Cl_F_obs ([2]; Brain PK, 5 mg/Kg (5mpk) IV): 1491.875 mL/min | Vz_F_obs ([2]; Brain PK, 5 mg/Kg (5mpk) IV): 286490.1 mL | Cl_F_obs ([2]; Brain PK, 10 mpk IP): 24837.56 mL/min | HL_Lambda_z ([2]; Brain PK, 10 mpk IP): 64.37 min | Vz_F_obs ([2]; Brain PK, 10 mpk IP): 2306714 mL | Cl_F_obs ([2]; Plasma PK, 5 mg/Kg (5mpk) IV): 1689.5566 mL/min | Vz_F_obs ([2]; Plasma PK, 5 mg/Kg (5mpk) IV): 101565.51 mL | Cl_F_obs ([2]; Plasma PK, 10 mpk IP): 3706.43 mL/min | HL_Lambda_z ([2]; Plasma PK, 10 mpk IP): 38.92 min | Vz_F_obs ([2]; Plasma PK, 10 mpk IP): 208114 mL, | AUC(0-t) ([2]; brain, ip, 10 mg/kg): 134 ng·h/mL | Cmax ([2]; brain, ip, 10 mg/kg): 77.8 ng/mL | Tmax ([2]; brain, ip, 10 mg/kg): 10 min | AUC(0-t) ([2]; brain, iv, 5 mg/kg): 1280 ng·h/mL | Cmax ([2]; brain, iv, 5 mg/kg): 1300 ng/mL | Tmax ([2]; brain, iv, 5 mg/kg): 10 min | half-life ([2]; brain, iv, 5 mg/kg): 133 min | AUC(0-t) ([2]; plasma, ip, 10 mg/kg): 1000 ng·h/mL | Cmax ([2]; plasma, ip, 10 mg/kg): 638 ng/mL | Tmax ([2]; plasma, ip, 10 mg/kg): 10 min | AUC(0-t) ([2]; plasma, iv, 5 mg/kg): 1130 ng·h/mL | Cmax ([2]; plasma, iv, 5 mg/kg): 1050 ng/mL | Tmax ([2]; plasma, iv, 5 mg/kg): 10 min | half-life ([2]; plasma, iv, 5 mg/kg): 41.7 min | Kp [4]: 1.13

Cc1ccc(Cn2c(=N)n(C(CO)Cc3cc[nH]c(=O)c3)c3ccccc32)cc1 (centres unmarked) [ww4-89]
solubility [5]: solubility issue along with tauto- meriza- tion, only proton NMR and LC-MS

COCC(Cc1ccc(C)cc1)n1c(=N)n(C(c2ccc(C)cc2)C2CC2)c2ccccc21 (single isomer, unassigned) [ww6-61]
Brain AUClast ([1]; brain): 38968.815 ng·min/mL | Brain Cmax ([1]; brain): 143.31 ng/mL | Brain HL_Lambda_z ([1]; brain): 134.1 min | Tmax [1, 7]: 30 min | Cmax ([1]; plasma): 841 ng/mL | AUC(0-t) ([1]; plasma): 986 ng·h/mL | Tmax ([1]; plasma, read-out: Plasma Tmax): 10 min | Plasma Cl_F_obs ([1]; plasma): 1.922 mL/min | Plasma HL_Lambda_z ([1]; plasma): 74.04 min | Plasma Vz_F_obs ([1]; plasma): 205.3 mL | microsomal CLint [6]: 17 µL/min/mg | half-life ([6]; read-out: Microsomes stability T1/2): 19 min

Br.Cc1ccc(CC(C(=O)N2CC(C#N)C2)n2c(=N)n(C(C)c3ccc(C)cc3)c3cccnc32)cc1 (single isomer, unassigned) [WZ-II-253]
Cl_F_obs ([2]; Brain PK, 5 mg/Kg (5mpk) IV): 9.5 mL/min | Vz_F_obs ([2]; Brain PK, 5 mg/Kg (5mpk) IV): 642 mL, | Cl_F_obs ([2]; Plasma PK, 5 mg/Kg (5mpk) IV): 3.86 mL/min | Vz_F_obs ([2]; Plasma PK, 5 mg/Kg (5mpk) IV): 221 mL | AUC(0-t) ([2]; brain, iv, 5 mg/kg): 209 ng·h/mL | Cmax ([2]; brain, iv, 5 mg/kg): 218 ng/mL | Tmax ([2]; brain, iv, 5 mg/kg): 10 min | half-life ([2]; brain, iv, 5 mg/kg): 47 min | AUC(0-t) ([2]; plasma, iv, 5 mg/kg): 518 ng·h/mL | Cmax ([2]; plasma, iv, 5 mg/kg): 651 ng/mL | Tmax ([2]; plasma, iv, 5 mg/kg): 10 min | half-life ([2]; plasma, iv, 5 mg/kg): 40 min
